{"source": "patent US20250320184A1", "about": "(SIRONAX LTD., priority 2022, published 2025)", "note": "pIC50: −log10 of the molar value.", "data": [{"molecular_target": "T1, SARM1 (50-724) (Homo sapiens, UniProt Q6SZW1)", "T1 sequence (Q6SZW1 50-724)": "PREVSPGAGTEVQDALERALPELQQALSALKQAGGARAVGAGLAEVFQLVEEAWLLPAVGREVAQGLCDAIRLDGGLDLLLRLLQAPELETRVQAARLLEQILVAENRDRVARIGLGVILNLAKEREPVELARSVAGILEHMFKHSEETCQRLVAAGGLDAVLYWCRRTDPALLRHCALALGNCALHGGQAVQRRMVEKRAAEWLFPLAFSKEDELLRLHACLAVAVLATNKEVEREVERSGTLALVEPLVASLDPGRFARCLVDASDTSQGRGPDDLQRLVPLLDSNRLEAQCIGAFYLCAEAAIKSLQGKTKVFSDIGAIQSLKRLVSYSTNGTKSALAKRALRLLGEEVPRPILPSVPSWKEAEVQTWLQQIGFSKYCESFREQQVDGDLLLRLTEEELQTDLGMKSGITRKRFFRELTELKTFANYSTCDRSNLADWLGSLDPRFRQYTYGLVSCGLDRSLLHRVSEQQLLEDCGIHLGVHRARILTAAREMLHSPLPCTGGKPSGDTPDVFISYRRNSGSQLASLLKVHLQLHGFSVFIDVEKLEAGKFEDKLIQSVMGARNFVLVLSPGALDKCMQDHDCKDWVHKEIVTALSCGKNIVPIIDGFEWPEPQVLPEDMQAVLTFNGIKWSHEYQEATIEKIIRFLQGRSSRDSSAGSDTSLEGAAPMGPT", "test": "biochemical", "experimental": "An enzymatic assay was performed in a 384-well plate using Dulbecco's phosphate-buffered saline (PBS) as the reaction buffer. […] The reaction was initiated by adding a mixture of 200 μM nicotinamide mononucleotide (NMN) as activator and 100 μM NAD^+ as substrate. After 1 h of incubation at room temperature, the reaction was terminated with 10 times volume of 70% acetonitrile, then centrifuged at 3800 rpm for 10 min.", "values": [{"smiles": "CC(Nc1ccc2cc[nH]c(=O)c2c1)c1nn(C2CCC2)c(Cl)c1Cl", "note": "(centres unmarked) [Compound 322, 7-((1-(4,5-dichloro-1-cyclobutyl-1H-pyrazol-3-yl)ethyl)amino)isoquinolin-1(2H)-one]", "pIC50": "> 7.00"}, {"smiles": "CC(Nc1ccc2cc[nH]c(=O)c2c1)c1cc(F)cc(Cl)c1Cl", "note": "(racemic) [Example 136, 7-((1-(2,3-dichloro-5-fluorophenyl)ethyl)amino)isoquinolin-1(2H)-one]", "pIC50": "> 7.00"}, {"smiles": "Cc1ccc2ccc(NS(=O)(=O)c3cccc(Cl)c3Cl)cc2n1", "note": "[Compound 71, 2,3-dichloro-N-(2-methylquinolin-7-yl)benzenesulfonamide]", "pIC50": "6.30 to 7.00"}, {"smiles": "CC1(C)C(=O)N(CCCC(N)=O)c2cc(NS(=O)(=O)c3cccc(Cl)c3Cl)ccc21", "note": "[Compound 280, 4-(6-((2,3-dichlorophenyl)sulfonamido)-3,3-dimethyl-2-oxoindolin-1-yl)butanamide]", "pIC50": "> 7.00"}, {"smiles": "Cc1n[nH]c(=O)c2nc(NC(C)c3nn(C)c(Cl)c3Cl)ccc12", "note": "(racemic) [Compound 311, 2-((1-(4,5-dichloro-1-methyl-1H-pyrazol-3-yl)ethyl)amino)-5-methylpyrido[2,3-d]pyridazin-8(7H)-one]", "pIC50": "> 7.00"}, {"smiles": "O=S(=O)(Nc1ccc2c(C3CC3)n[nH]c2c1)c1cccc(Cl)c1Cl", "note": "[Compound 88, 2,3-dichloro-N-(3-cyclopropyl-1H-indazol-6-yl)benzenesulfonamide]", "pIC50": "> 7.00"}, {"smiles": "Cc1ccc(Cl)c(S(=O)(=O)Nc2ccc3cc[nH]c(=O)c3c2)c1Cl", "note": "[Compound 37, 2,6-dichloro-3-methyl-N-(1-oxo-2H-isoquinolin-7-yl)benzenesulfonamide]", "pIC50": "> 7.00"}, {"smiles": "Cc1cc(F)cc(C(Nc2ccc3c(c2)C(=O)NCC3)c2ccncc2)c1", "note": "(centres unmarked) [Example 177, 7-(((3-fluoro-5-methylphenyl)(pyridin-4-yl)methyl)amino)-3,4-dihydroisoquinolin-1(2H)-one]", "pIC50": "< 6.00"}, {"smiles": "CC1(C)c2ccc(NS(=O)(=O)c3cccc(Cl)c3Cl)cc2C(=O)N1CC(N)=O", "note": "[Compound 289, 2-(5-((2,3-dichlorophenyl)sulfonamido)-1,1-dimethyl-3-oxoisoindolin-2-yl)acetamide]", "pIC50": "> 7.00"}, {"smiles": "Cc1c2ccc(NC(C)c3nc(Cl)c(Cl)s3)cc2nn1CC(N)=O", "note": "(single isomer, unassigned) [Compound 312B]", "pIC50": "< 6.00"}, {"smiles": "Cc1nc(C(C)Nc2ccc3c(C)n(CC(N)=O)nc3c2)sc1Cl", "note": "(racemic) [Compound 343, 2-(6-((1-(5-chloro-4-methylthiazol-2-yl)ethyl)amino)-3-methyl-2H-indazol-2-yl)acetamide]", "pIC50": "> 7.00"}, {"smiles": "CC1Cc2ccc(NS(=O)(=O)c3cccc(Cl)c3Cl)cc2NC1=O", "note": "(racemic) [Compound 269, 2,3-dichloro-N-(3-methyl-2-oxo-3,4-dihydro-1H-quinolin-7-yl)benzenesulfonamide]", "pIC50": "> 7.00"}, {"smiles": "CC1(C)CN(S(N)(=O)=O)c2cc(NS(=O)(=O)c3cccc(Cl)c3Cl)ccc21", "note": "[Compound 319, 6-((2,3-dichlorophenyl)sulfonamido)-3,3-dimethylindoline-1-sulfonamide]", "pIC50": "> 7.00"}, {"smiles": "O=c1[nH]cnc2ccc(NS(=O)(=O)c3cccc(Cl)c3Cl)cc12", "note": "[Compound 23, 2,3-dichloro-N-(4-oxo-3,4-dihydroquinazolin-6-yl)benzenesulfonamide]", "pIC50": "6.30 to 7.00"}, {"smiles": "Cc1nn(CC(N)=O)c(=O)c2cc(NC(C)c3nc(Cl)c(Cl)s3)ccc12", "note": "(single isomer, unassigned) [Compound 358]", "pIC50": "< 6.00"}, {"smiles": "Cc1sc(C(C)Nc2ccc3c(C)n(CC(N)=O)nc3c2)nc1Cl", "note": "(racemic) [Compound 379, 2-(6-((1-(4-chloro-5-methylthiazol-2-yl)ethyl)amino)-3-methyl-2H-indazol-2-yl)acetamide]", "pIC50": "> 7.00"}, {"smiles": "Cc1cc(F)cc(C(Cc2ccccc2)Nc2ccc3c(c2)C(=O)NCC3)c1", "note": "(racemic) [Example 127, 7-((1-(3-fluoro-5-methylphenyl)-2-phenylethyl)amino)-3,4-dihydroisoquinolin-1(2H)-one]", "pIC50": "< 6.00"}, {"smiles": "O=S(=O)(Nc1ccc(Cc2cncs2)cc1)c1cccc(Cl)c1Cl", "note": "[Compound 251, 2,3-dichloro-N-(4-(thiazol-5-ylmethyl)phenyl)benzenesulfonamide]", "pIC50": "> 7.00"}, {"smiles": "CC1Cc2ccc(NS(=O)(=O)c3cccc(Cl)c3Cl)cc2C(=O)N1", "note": "(centres unmarked) [Compound 19, 2,3-dichloro-N-(3-methyl-1-oxo-1,2,3,4-tetrahydroisoquinolin-7-yl)benzenesulfonamide]", "pIC50": "6.30 to 7.00"}, {"smiles": "Cc1c(F)cccc1S(=O)(=O)Nc1cccc(-c2cscn2)c1", "note": "[Example 159, 3-fluoro-2-methyl-N-(3-(thiazol-4-yl)phenyl)benzenesulfonamide]", "pIC50": "6.00 to 6.30"}, {"smiles": "CC(Nc1ccc2ccccc2c1)c1cccc(Cl)c1Cl", "note": "(centres unmarked) [Example 13A, N-(1-(2,3-dichlorophenyl)ethyl)naphthalen-2-amine]", "pIC50": "< 6.00"}, {"smiles": "CC(Nc1ccc2ccn(CC(N)=O)c(=O)c2c1)c1nc(Cl)c(Cl)s1", "note": "(racemic) [Compound 290, 2-(7-((1-(4,5-dichlorothiazol-2-yl)ethyl)amino)-1-oxoisoquinolin-2(1H)-yl)acetamide]", "pIC50": "> 7.00"}, {"smiles": "Cc1nc(C(C)Nc2ccc3c(C)n(CC(N)=O)nc3c2)sc1Cl", "note": "(single isomer, unassigned) [Compound 362]", "pIC50": "> 7.00"}, {"smiles": "CC(Nc1ccc2snc(C(=O)N3CC(O)C3)c2c1)c1nc(Cl)c(Cl)s1", "note": "(racemic) [Compound 346, (5-((1-(4,5-dichlorothiazol-2-yl)ethyl)amino)benzo[d]isothiazol-3-yl)(3-hydroxyazetidin-1-yl)methanone]", "pIC50": "> 7.00"}, {"smiles": "CC(Nc1ccc2c(c1)NC(=O)OC2(C)C)c1nc(Cl)c(Cl)s1", "note": "(racemic) [Compound 258, 7-((1-(4,5-dichlorothiazol-2-yl)ethyl)amino)-4,4-dimethyl-1,4-dihydro-2H-benzo[d][1,3]oxazin-2-one]", "pIC50": "> 7.00"}, {"smiles": "O=S(=O)(Nc1cc2ccccc2cn1)c1cccc(Cl)c1Cl", "note": "[Compound 76, 2,3-dichloro-N-(isoquinolin-3-yl)benzenesulfonamide]", "pIC50": "6.30 to 7.00"}, {"smiles": "Cn1ncc2ccc(NS(=O)(=O)c3cccc(Cl)c3Cl)cc21", "note": "[Compound 52, 2,3-dichloro-N-(1-methyl-1H-indazol-6-yl)benzenesulfonamide]", "pIC50": "6.30 to 7.00"}, {"smiles": "O=S(=O)(Nc1ccc2ccccc2c1)c1cccc(Cl)c1Cl", "note": "[Compound 44, 2,3-dichloro-N-(naphthalen-2-yl)benzenesulfonamide]", "pIC50": "6.30 to 7.00"}, {"smiles": "Cc1n[nH]c(=O)c2cc(NC(CC(O)CCO)c3nc(Cl)c(Cl)s3)ccc12", "note": "(mixture of isomers) [Example 293, 7-((1-(4,5-dichlorothiazol-2-yl)-3,5-dihydroxypentyl)amino)-4-methylphthalazin-1(2H)-one]", "pIC50": "6.30 to 7.00"}, {"smiles": "CC(Nc1ccc2nccc(=O)n2c1)c1cccc(Cl)c1Cl", "note": "(racemic) [Example 148, 7-((1-(2,3-dichlorophenyl)ethyl)amino)-4H-pyrido[1,2-a]pyrimidin-4-one]", "pIC50": "< 6.00"}, {"smiles": "CC(Nc1cc(F)c2nc[nH]c(=O)c2c1)c1nccc(Cl)c1Cl", "note": "(racemic) [Compound 352, 6-((1-(3,4-dichloropyridin-2-yl)ethyl)amino)-8-fluoroquinazolin-4(3H)-one]", "pIC50": "> 7.00"}, {"smiles": "Cc1snc(C(C)Nc2ccc3nc[nH]c(=O)c3c2)c1Cl", "note": "(racemic) [Compound 260, 6-((1-(4-chloro-5-methylisothiazol-3-yl)ethyl)amino)quinazolin-4(3H)-one]", "pIC50": "6.30 to 7.00"}]}]}
